How the values were obtained:
WEE1 = target: T1, WEE1 (Homo sapiens, UniProt P30291+Q96SW2); assay: Western-blot assay of substrate protein degradation in hPBMCs, WEE1; format: cell-based; settings: 24 hours of compound treatment, compounds tested at 50 nM and 500 nM (concentration of the table not stated)
T1 construct: endogenous in cells; host or cells: hPBMCs (Milecell Biotechnologies)

IKZF3 = target: T2, IKZF3 (Homo sapiens, UniProt Q96SW2+Q9UKT9); assay: Western-blot assay of substrate protein degradation in hPBMCs, IKZF3; format: cell-based; settings: 24 hours of compound treatment, compounds tested at 50 nM and 500 nM (concentration of the table not stated)
T2 construct: endogenous in cells; host or cells: hPBMCs (Milecell Biotechnologies)
T2 sequence (Q9UKT9 whole entry): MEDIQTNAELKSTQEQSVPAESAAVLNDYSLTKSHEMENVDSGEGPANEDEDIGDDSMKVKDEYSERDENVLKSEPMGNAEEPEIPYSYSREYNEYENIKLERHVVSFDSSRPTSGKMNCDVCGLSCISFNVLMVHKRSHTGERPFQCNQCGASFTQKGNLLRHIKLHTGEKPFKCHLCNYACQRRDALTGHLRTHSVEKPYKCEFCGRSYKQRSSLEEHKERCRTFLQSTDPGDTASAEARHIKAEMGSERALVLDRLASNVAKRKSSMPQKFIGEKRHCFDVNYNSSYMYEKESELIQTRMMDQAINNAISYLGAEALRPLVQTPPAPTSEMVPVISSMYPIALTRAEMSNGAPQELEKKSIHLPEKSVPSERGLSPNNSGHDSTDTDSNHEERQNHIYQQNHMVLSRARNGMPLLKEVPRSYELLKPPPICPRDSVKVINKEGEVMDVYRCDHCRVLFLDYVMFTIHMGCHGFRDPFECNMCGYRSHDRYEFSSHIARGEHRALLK
T2 sequence (Q96SW2 whole entry): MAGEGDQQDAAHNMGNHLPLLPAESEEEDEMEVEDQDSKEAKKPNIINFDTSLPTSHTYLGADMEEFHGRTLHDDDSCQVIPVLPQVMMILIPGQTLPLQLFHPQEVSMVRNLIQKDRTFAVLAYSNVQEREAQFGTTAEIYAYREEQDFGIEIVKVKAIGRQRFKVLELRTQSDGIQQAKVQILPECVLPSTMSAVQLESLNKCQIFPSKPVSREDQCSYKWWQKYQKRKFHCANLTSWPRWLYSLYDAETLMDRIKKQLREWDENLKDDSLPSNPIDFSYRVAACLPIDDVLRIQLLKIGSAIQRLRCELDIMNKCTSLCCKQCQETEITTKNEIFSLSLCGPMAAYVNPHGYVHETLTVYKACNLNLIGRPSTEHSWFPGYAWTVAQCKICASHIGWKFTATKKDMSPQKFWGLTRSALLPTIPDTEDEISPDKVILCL
T2 sequence (Q16531 whole entry partner): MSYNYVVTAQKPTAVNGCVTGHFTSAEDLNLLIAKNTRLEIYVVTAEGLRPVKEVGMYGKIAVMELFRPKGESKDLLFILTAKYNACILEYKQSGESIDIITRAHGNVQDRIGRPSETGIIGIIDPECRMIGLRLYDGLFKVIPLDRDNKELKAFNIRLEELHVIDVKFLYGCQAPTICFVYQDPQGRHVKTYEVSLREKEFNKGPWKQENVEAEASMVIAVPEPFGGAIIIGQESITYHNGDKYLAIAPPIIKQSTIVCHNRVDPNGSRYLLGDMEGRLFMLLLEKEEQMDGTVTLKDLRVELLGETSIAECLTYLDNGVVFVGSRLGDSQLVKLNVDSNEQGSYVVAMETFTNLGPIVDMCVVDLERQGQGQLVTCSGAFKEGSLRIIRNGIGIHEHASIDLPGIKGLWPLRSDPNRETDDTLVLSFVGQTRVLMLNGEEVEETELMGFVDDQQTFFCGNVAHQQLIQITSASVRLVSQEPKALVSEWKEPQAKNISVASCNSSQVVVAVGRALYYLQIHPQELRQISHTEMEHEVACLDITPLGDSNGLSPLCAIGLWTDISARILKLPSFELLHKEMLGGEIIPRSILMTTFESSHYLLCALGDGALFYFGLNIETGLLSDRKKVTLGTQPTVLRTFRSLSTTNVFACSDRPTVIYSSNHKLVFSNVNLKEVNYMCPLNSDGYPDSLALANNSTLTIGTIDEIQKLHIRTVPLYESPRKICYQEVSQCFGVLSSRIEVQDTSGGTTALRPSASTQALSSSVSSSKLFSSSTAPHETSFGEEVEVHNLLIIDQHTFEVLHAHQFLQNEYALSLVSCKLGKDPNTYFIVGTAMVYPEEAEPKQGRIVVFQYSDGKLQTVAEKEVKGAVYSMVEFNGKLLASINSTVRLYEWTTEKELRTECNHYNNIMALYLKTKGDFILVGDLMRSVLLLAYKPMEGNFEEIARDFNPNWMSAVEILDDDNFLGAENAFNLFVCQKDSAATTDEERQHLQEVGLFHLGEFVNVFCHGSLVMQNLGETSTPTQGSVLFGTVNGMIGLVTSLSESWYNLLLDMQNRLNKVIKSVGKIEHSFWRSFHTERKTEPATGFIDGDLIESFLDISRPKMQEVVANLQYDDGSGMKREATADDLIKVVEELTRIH

IKZF1 = target: T3, IKZF1 (Homo sapiens, UniProt Q13422+Q96SW2); assay: Western-blot assay of substrate protein degradation in hPBMCs, IKZF1; format: cell-based; settings: 24 hours of compound treatment, compounds tested at 50 nM and 500 nM (concentration of the table not stated)
T3 construct: endogenous in cells; host or cells: hPBMCs (Milecell Biotechnologies)
T3 sequence (Q13422 whole entry): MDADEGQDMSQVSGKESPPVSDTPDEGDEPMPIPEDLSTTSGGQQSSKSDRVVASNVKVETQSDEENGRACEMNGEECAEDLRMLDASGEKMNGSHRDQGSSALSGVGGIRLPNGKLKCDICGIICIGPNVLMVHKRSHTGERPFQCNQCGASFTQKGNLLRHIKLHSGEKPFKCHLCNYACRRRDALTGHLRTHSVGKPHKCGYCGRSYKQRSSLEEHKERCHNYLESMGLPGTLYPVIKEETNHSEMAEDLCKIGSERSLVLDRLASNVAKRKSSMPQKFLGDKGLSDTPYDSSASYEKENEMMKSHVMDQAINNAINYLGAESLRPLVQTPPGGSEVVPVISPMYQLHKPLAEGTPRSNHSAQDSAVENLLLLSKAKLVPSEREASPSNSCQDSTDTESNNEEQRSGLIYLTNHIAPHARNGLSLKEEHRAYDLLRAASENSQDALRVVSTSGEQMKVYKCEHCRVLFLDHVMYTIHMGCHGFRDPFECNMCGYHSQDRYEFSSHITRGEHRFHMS
T3 sequence (Q96SW2 whole entry): as the sequence (Q96SW2 whole entry) above
T3 sequence (Q16531 whole entry partner): as the sequence (Q16531 whole entry partner) above

CK1α = target: T4, CK1α (Homo sapiens, UniProt P48729+Q96SW2); assay: Western-blot assay of substrate protein degradation in hPBMCs, CK1α; format: cell-based; settings: 24 hours of compound treatment, compounds tested at 50 nM and 500 nM (concentration of the table not stated)
T4 construct: endogenous in cells; host or cells: hPBMCs (Milecell Biotechnologies)
T4 sequence (P48729 whole entry): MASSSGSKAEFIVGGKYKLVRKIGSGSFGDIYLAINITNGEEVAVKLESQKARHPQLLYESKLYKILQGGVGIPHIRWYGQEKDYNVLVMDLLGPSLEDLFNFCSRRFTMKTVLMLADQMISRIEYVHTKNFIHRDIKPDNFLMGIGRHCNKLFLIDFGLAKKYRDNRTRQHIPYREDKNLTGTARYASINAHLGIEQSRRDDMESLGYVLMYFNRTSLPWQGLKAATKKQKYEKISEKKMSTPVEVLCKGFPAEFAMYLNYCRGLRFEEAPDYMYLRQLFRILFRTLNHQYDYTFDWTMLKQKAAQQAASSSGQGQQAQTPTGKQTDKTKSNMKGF
T4 sequence (Q96SW2 whole entry): as the sequence (Q96SW2 whole entry) above
T4 sequence (Q16531 whole entry partner): as the sequence (Q16531 whole entry partner) above

Jurkat = assay: Tumor cell proliferation inhibition (CellTiter-Meiluncell Luminescent Cell Viability Assay), Jurkat; settings: Homo sapiens, 96 h, read-out: inhibitory activity (IC50, nM) against tumor cells proliferation, Jurkat
Experimental: (§1) The tumor cells used herein were cultured in a cell culture medium listed in table 2 at 37°C in an incubator with 5% CO2. Prior to experimentation, all cell lines used were correctly identified by STR profiling, and tested negative for mycoplasma contamination using a mycoplasma detection kit through routine screenings.
(§2) On the following day, the test compounds of the present disclosure were subjected to serial dilution. […] Subsequently, 0.5 µL of the test compound dilution was transferred into the 96-well plate containing the cells, with each well containing 100 µL of cell culture medium. […] Into the 96-well plate, the diluted test compounds and corresponding detection reagents were added, resulting in final test compound concentrations of 500 nM and 10 nM, respectively. The experimental procedure is described below using the diluted 2 µM test compound as an example.
(§3) After the cells were treated with the compounds of the present disclosure for a specified period (the treatment durations were shown in Table 3), the cell viability assay reagent was added to the culture medium according to the kit's instructions to determine cell viability. […] All controls were treated using the same procedure as the compounds of the present disclosure. The growth inhibition curves for the compounds of the present disclosure were plotted using Prism GraphPad software, and the IC50 values were calculated therefrom.

MM.1R = assay: Tumor cell proliferation inhibition (CellTiter-Meiluncell Luminescent Cell Viability Assay), MM.1R; settings: Homo sapiens, 96 h, read-out: inhibitory activity (IC50, nM) against tumor cells proliferation, MM.1R
[1] = target: T5, human Cereblon WT GST-tagged protein (Homo sapiens, UniProt Q96SW2); assay: CRBN-binding affinity by HTRF (CEREBLON BINDING kit); settings: HTRF inhibitory activity, CEREBLON BINDING kit; read-out: HTRF IC50
T5 construct: purchased CISBIO 64BDCRBNPEH
T5 sequence (Q96SW2 whole entry): as the sequence (Q96SW2 whole entry) above

Vcap = assay: Tumor cell proliferation inhibition (CellTiter-Meiluncell Luminescent Cell Viability Assay), Vcap; settings: Homo sapiens, 96 h, read-out: inhibitory activity (IC50, nM) against tumor cells proliferation, Vcap
Experimental: as §1, §2, §3

IKZF2 = target: T6, IKZF2 (Homo sapiens, UniProt Q96SW2+Q9UKS7); assay: Western-blot assay of substrate protein degradation in hPBMCs, IKZF2; format: cell-based; settings: 24 hours of compound treatment, compounds tested at 50 nM and 500 nM (concentration of the table not stated)
T6 construct: endogenous in cells; host or cells: hPBMCs (Milecell Biotechnologies)
T6 sequence (Q9UKS7 whole entry): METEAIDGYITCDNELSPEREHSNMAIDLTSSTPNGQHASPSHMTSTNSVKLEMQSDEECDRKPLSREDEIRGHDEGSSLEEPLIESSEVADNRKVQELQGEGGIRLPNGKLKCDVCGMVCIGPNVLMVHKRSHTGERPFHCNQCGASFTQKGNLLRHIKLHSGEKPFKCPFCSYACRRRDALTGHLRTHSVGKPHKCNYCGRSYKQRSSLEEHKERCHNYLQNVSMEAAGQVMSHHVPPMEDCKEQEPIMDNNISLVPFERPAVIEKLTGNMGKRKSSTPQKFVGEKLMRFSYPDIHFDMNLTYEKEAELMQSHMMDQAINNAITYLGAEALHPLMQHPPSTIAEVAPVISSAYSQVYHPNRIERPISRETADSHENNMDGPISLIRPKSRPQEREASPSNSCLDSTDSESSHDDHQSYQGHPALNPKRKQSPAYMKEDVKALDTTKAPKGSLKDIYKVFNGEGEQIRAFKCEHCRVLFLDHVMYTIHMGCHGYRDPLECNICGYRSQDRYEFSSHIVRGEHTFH
T6 sequence (Q96SW2 whole entry): as the sequence (Q96SW2 whole entry) above
T6 sequence (Q16531 whole entry partner): as the sequence (Q16531 whole entry partner) above

CCRF-CEM = assay: Tumor cell proliferation inhibition (CellTiter-Meiluncell Luminescent Cell Viability Assay), CCRF-CEM; settings: Homo sapiens, 96 h, read-out: inhibitory activity (IC50, nM) against tumor cells proliferation, CCRF-CEM
CAL-62 = assay: Tumor cell proliferation inhibition (CellTiter-Meiluncell Luminescent Cell Viability Assay), CAL-62; settings: Homo sapiens, CAL-62, 96 h, read-out: inhibitory activity (IC50, nM) against tumor cells proliferation, CAL-62
GSPT1 = target: T7, GSPT1 (Homo sapiens, UniProt P15170+Q96SW2); assay: Western-blot assay of substrate protein degradation in hPBMCs, GSPT1; format: cell-based; settings: 24 hours of compound treatment, compounds tested at 50 nM and 500 nM (concentration of the table not stated)
T7 construct: endogenous in cells; host or cells: hPBMCs (Milecell Biotechnologies)

[2] = test system: Human acute T lymphocytic leukemia cells (Molt-4); assay: Tumor cell proliferation inhibition (CellTiter-Meiluncell Luminescent Cell Viability Assay), Molt-4; settings: MOLT-4, 96 h, read-out: inhibitory activity (IC50, nM) against tumor cells proliferation, Molt 4
[3] = test system: Human breast cancer cells (MDA-MB-231); assay: Tumor cell proliferation inhibition (CellTiter-Meiluncell Luminescent Cell Viability Assay), MDA-MB-231; settings: MDA-MB-231, 96 h, read-out: inhibitory activity (IC50, nM) against tumor cells proliferation, MDA-MB-231
Experimental: as §1, §2, §3

NCI-H1975 = assay: Tumor cell proliferation inhibition (CellTiter-Meiluncell Luminescent Cell Viability Assay), NCI-H1975; settings: Homo sapiens, NCI-H1975, 96 h, read-out: inhibitory activity (IC50, nM) against tumor cells proliferation, H1975
TMD8 = assay: Tumor cell proliferation inhibition (CellTiter-Meiluncell Luminescent Cell Viability Assay), TMD8; settings: Homo sapiens, TMD8, 96 h, read-out: inhibitory activity (IC50, nM) against tumor cells proliferation, TMD8

T1 sequence (P30291 whole entry): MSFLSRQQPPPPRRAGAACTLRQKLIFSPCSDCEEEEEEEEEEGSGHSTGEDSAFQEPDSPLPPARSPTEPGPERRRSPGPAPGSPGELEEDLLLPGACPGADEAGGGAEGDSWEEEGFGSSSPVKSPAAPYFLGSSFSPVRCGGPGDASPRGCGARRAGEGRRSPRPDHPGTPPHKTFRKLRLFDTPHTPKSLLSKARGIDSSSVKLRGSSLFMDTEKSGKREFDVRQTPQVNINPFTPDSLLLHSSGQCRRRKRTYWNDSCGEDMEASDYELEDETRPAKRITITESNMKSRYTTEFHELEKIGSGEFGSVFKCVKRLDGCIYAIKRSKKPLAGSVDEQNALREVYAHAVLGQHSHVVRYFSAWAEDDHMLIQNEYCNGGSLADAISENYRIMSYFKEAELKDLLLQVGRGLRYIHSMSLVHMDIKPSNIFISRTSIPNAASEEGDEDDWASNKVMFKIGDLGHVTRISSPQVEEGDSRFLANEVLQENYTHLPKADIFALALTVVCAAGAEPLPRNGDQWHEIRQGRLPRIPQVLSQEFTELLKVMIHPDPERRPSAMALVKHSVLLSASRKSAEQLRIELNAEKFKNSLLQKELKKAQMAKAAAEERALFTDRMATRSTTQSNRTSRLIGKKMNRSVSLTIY
T1 sequence (Q96SW2 whole entry): as the sequence (Q96SW2 whole entry) above
T1 sequence (Q16531 whole entry partner): as the sequence (Q16531 whole entry partner) above

Row | IC50 (Jurkat) [nM] | IC50 (MM.1R) [nM] | IC50 [1] [nM] | IC50 (Vcap) [nM] | IC50 (CCRF-CEM) [nM] | IC50 (CAL-62) [nM] | IC50 [2] [nM] | IC50 [3] [nM] | IC50 (TMD8) [nM] | SMILES | Weel substrate protein remaining % (WEE1) | IKZF3 substrate protein remaining % (IKZF3) | IKZF 1 substrate protein remaining % (IKZF1) | CK1a substrate protein remaining % (CK1α) | IKZF2 substrate protein remaining % (IKZF2) | GSPT1 substrate protein remaining % (GSPT1) | IC50 (NCI-H1975) [nM]
1 | 10 to 50 | 50 to 100 | 500 to 1000 | 100 to 500 | 10 to 50 | 50 to 100 | 10 to 50 |  |  | O=C1CCC(N2Cc3cc(CN4CCN(c5cc(Cl)ccn5)CC4)ccc3C2=O)C(=O)N1 (stereo not drawn) [GT-04430, 3-(5-((4-(4-chloropyridin-2-yl)piperazin-1-yl)methyl)-1-oxoisoindolin-2-yl)piperidine-2,6-dione] | B (80%< substrate protein remaining %≤ 100%) | A (0% ≤ substrate protein remaining % ≤ 80%) | A (0% ≤ substrate protein remaining % ≤ 80%) | B (80%< substrate protein remaining %≤ 100%) | A (0% ≤ substrate protein remaining % ≤ 80%) | A (0% ≤ substrate protein remaining % ≤ 80%) | 
2 | 10 to 50 | 10 to 50 | 1000 to 1500 | 100 to 500 | 10 to 50 | 50 to 100 | 10 to 50 |  |  | Cc1ccccc1N1CCN(Cc2ccc3c(c2)CN(C2CCC(=O)NC2=O)C3=O)CC1 (stereo not drawn) [GT-04461, 3-(1-oxo-5-((4-(o-tolyl)piperazin-1-yl)methyl)isoindolin-2-yl)piperidine-2,6-dione] | A (0% ≤ substrate protein remaining % ≤ 80%) | A (0% ≤ substrate protein remaining % ≤ 80%) | A (0% ≤ substrate protein remaining % ≤ 80%) | B (80%< substrate protein remaining %≤ 100%) | A (0% ≤ substrate protein remaining % ≤ 80%) | A (0% ≤ substrate protein remaining % ≤ 80%) | 
3 | 10 to 50 | 50 to 100 | 500 to 1000 | 100 to 500 | 10 to 50 | 100 to 500 | 10 to 50 |  |  | O=C1CCC(N2Cc3cc(CN4CCC(c5ccc(F)cc5)CC4)ccc3C2=O)C(=O)N1 (stereo not drawn) [GT-04471, 3-(5-((4-(4-fluorophenyl)piperidin-1-yl)methyl)-1-oxoisoindolin-2-yl)piperidine-2,6-dione] | A (0% ≤ substrate protein remaining % ≤ 80%) | A (0% ≤ substrate protein remaining % ≤ 80%) | A (0% ≤ substrate protein remaining % ≤ 80%) | B (80%< substrate protein remaining %≤ 100%) | A (0% ≤ substrate protein remaining % ≤ 80%) | A (0% ≤ substrate protein remaining % ≤ 80%) | 
4 | 50 to 100 | 100 to 500 | 500 to 1000 | 500 to 1000 | 50 to 100 | 500 to 1000 | 100 to 500 |  |  | COc1ccccc1N1CCN(Cc2ccc3c(c2)CN(C2CCC(=O)NC2=O)C3=O)CC1 (stereo not drawn) [GT-04490, 3-(5-((4-(2-methoxyphenyl)piperazin-1-yl)methyl)-1-oxoisoindolin-2-yl)piperidine-2,6-dione] | B (80%< substrate protein remaining %≤ 100%) | B (80%< substrate protein remaining %≤ 100%) | B (80%< substrate protein remaining %≤ 100%) | A (0% ≤ substrate protein remaining % ≤ 80%) | A (0% ≤ substrate protein remaining % ≤ 80%) | A (0% ≤ substrate protein remaining % ≤ 80%) | 
5 | 10 to 50 | 10 to 50 | 500 to 1000 | 100 to 500 | 10 to 50 | 10 to 50 |  |  |  | O=C1CCC(N2Cc3cc(CN4CCC(c5ccc(Br)cc5)CC4)ccc3C2=O)C(=O)N1 (stereo not drawn) [GT-04493, 3-(5-((4-(4-bromophenyl)piperidin-1-yl)methyl)-1-oxoisoindolin-2-yl)piperidine-2,6-dione] | A (0% ≤ substrate protein remaining % ≤ 80%) | B (80%< substrate protein remaining %≤ 100%) | B (80%< substrate protein remaining %≤ 100%) | A (0% ≤ substrate protein remaining % ≤ 80%) | A (0% ≤ substrate protein remaining % ≤ 80%) | A (0% ≤ substrate protein remaining % ≤ 80%) | 
6 |  |  | < 500 |  |  |  | 100 to 500 | 500 to 1000 | 500 to 1000 | O=C1CCC(N2Cc3cc(CN4CCN(c5c[nH]c6ncccc56)CC4)ccc3C2=O)C(=O)N1 (stereo not drawn) [GT-04601, 3-(5-((4-(1H-pyrrolo[2,3-b]pyridin-3-yl)piperazin-1-yl)methyl)-1-oxoisoindolin-2-yl)piperidine-2,6-dione] | A (0% ≤ substrate protein remaining % ≤ 80%) | A (0% ≤ substrate protein remaining % ≤ 80%) | A (0% ≤ substrate protein remaining % ≤ 80%) | A (0% ≤ substrate protein remaining % ≤ 80%) | B (80%< substrate protein remaining %≤ 100%) | A (0% ≤ substrate protein remaining % ≤ 80%) | 
7 |  |  | < 500 |  |  |  | 10 to 50 | 100 to 500 | 500 to 1000 | Cc1sc2ncnc(C3=CCN(Cc4ccc5c(c4)CN(C4CCC(=O)NC4=O)C5=O)CC3)c2c1C (stereo not drawn) [GT-04727, 3-(5-((4-(5,6-dimethylthieno[2,3-d]pyrimidin-4-yl)-3,6-dihydropyridin-1(2H)-yl)methyl)-1-oxoisoindolin-2-yl)piperidine-2,6-dione] | A (0% ≤ substrate protein remaining % ≤ 80%) | A (0% ≤ substrate protein remaining % ≤ 80%) | A (0% ≤ substrate protein remaining % ≤ 80%) | A (0% ≤ substrate protein remaining % ≤ 80%) | B (80%< substrate protein remaining %≤ 100%) | A (0% ≤ substrate protein remaining % ≤ 80%) | 
8 |  |  | 1500 to 1900 |  |  |  | 1 to 5 | 10 to 50 | 10 to 50 | O=C1CCC(N2Cc3cc(CN4CCC(c5noc6cc(F)ccc56)CC4)c(F)cc3C2=O)C(=O)N1 (stereo not drawn) [GT-04766, 3-(6-fluoro-5-((4-(6-fluorobenzo[d]isoxazol-3-yl)piperidin-1-yl)methyl)-1-oxoisoindolin-2-yl)piperidine-2,6-dione] |  |  |  |  |  |  | 10 to 50

Row | SMILES | IC50 (Jurkat) [nM] | IC50 (MM.1R) [nM] | IC50 [1] [nM] | IC50 (Vcap) [nM] | IC50 (CCRF-CEM) [nM] | IC50 (CAL-62) [nM] | IC50 [2] [nM] | IC50 [3] [nM] | IC50 (TMD8) [nM] | Weel substrate protein remaining % (WEE1) | IKZF3 substrate protein remaining % (IKZF3) | IKZF 1 substrate protein remaining % (IKZF1) | CK1a substrate protein remaining % (CK1α) | IKZF2 substrate protein remaining % (IKZF2) | GSPT1 substrate protein remaining % (GSPT1) | IC50 (NCI-H1975) [nM]
9 | O=C1CCC(N2Cc3cc(CN4CC=C(c5ccnc(Cl)c5Cl)CC4)ccc3C2=O)C(=O)N1 (stereo not drawn) [GT-04559, 3-(5-((2',3'-dichloro-3,6-dihydro-[4,4'-bipyridin]-1(2H)-yl)methyl)-1-oxoisoindolin-2-yl)piperidine-2,6-dione] | 1 to 5 | 1 to 5 | < 500 |  |  | 1 to 5 | 1 to 5 | 10 to 50 |  | A (0% ≤ substrate protein remaining % ≤ 80%) | A (0% ≤ substrate protein remaining % ≤ 80%) | A (0% ≤ substrate protein remaining % ≤ 80%) | A (0% ≤ substrate protein remaining % ≤ 80%) | A (0% ≤ substrate protein remaining % ≤ 80%) | A (0% ≤ substrate protein remaining % ≤ 80%) | 10 to 50
